Values after ≈ are worked out from the molar mass of the structure shown.
Assays:
HepG2 = assay: Cytotoxicity against human HepG2 cells by MTT method; type: cell-based
[1] = Cytotoxicity against human Hep3B cells by MTT method; type: cell-based, Hep 3B2
MCF7 = assay: Cytotoxicity against human MCF7 cells by MTT method; type: cell-based
A549 = assay: Cytotoxicity against human A549 cells by MTT method; type: cell-based
MDA-MB-231 = assay: Cytotoxicity against human MDA-MB-231 cells by MTT method; type: cell-based
MRC5 = assay: Cytotoxicity against human MRC5 cells by MTT method; type: cell-based

SMILES	IC50 (HepG2)	IC50 [1]	IC50 (MCF7)	IC50 (A549)	IC50 (MDA-MB-231)	IC50 (MRC5)
CC1=C(C)C(=O)O[C@@H]([C@@H](C)[C@@]2(C)C3=C(C[C@H]2O)[C@@H]2C[C@H](Cl)[C@]4(O)[C@@H](O)C=CC(=O)[C@]4(C)[C@H]2CC3)C1 [TUBOCAPSENOLIDE G]	19.1 µg/mL (≈ 37.9 µM)	> 20 µg/mL	> 20 µg/mL	19.9 µg/mL (≈ 39.5 µM)	> 20 µg/mL	–
CC1=C(C)C(=O)O[C@@H]([C@@H](C)[C@@]23O[C@@H]2C[C@H]2[C@@H]4C[C@H]5O[C@]56[C@@H](O)C=CC(=O)[C@]6(C)[C@H]4CC[C@@]23C)C1 [TUBOCAPSANOLIDE A]	0.86 µg/mL (≈ 1.84 µM)	0.42 µg/mL (≈ 0.896 µM)	1.47 µg/mL (≈ 3.14 µM)	0.47 µg/mL (≈ 1 µM)	0.22 µg/mL (≈ 0.469 µM)	0.73 µg/mL (≈ 1.56 µM)
CC1=C(C)C(=O)O[C@@H]([C@@H](C)[C@@]2(O)CC[C@H]3[C@@H]4C[C@H](O)[C@]5(O)[C@@H](O)C=CC(=O)[C@]5(C)[C@H]4CC[C@@]32C)C1	> 20 µg/mL	7.19 µg/mL (≈ 14.7 µM)	> 20 µg/mL	8.01 µg/mL (≈ 16.4 µM)	13.5 µg/mL (≈ 27.6 µM)	–
C[C@@]12CC([C@@]3(O)CC[C@H]4[C@@H]5C[C@H](O)[C@]6(O)[C@@H](O)C=CC(=O)[C@]6(C)[C@H]5CC[C@@]43C)[C@@H](C1)OC(=O)[C@]2(C)O (stereo partly drawn) [ANOMANOLIDE B]	0.97 µg/mL (≈ 1.92 µM)	3.17 µg/mL (≈ 6.28 µM)	4.84 µg/mL (≈ 9.59 µM)	1.49 µg/mL (≈ 2.95 µM)	0.7 µg/mL (≈ 1.39 µM)	0.2 µg/mL (≈ 0.396 µM)
CC1=C(C)[C@H](O)[C@H]([C@@H](C)[C@@]23O[C@@H]2C[C@H]2[C@@H]4C[C@H]5O[C@]56[C@@H](O)C=CC(=O)[C@]6(C)[C@H]4CC[C@@]23C)OC1=O [23-HYDROXYTUBOCAPSANOLIDE A]	0.44 µg/mL (≈ 0.908 µM)	0.49 µg/mL (≈ 1.01 µM)	2.05 µg/mL (≈ 4.23 µM)	0.79 µg/mL (≈ 1.63 µM)	1.19 µg/mL (≈ 2.46 µM)	0.9 µg/mL (≈ 1.86 µM)
COc1cccc2c1C(=O)c1c(O)c3c(c(O)c1C2=O)C[C@@](O)(C(=O)CO)C[C@@H]3O[C@H]1C[C@H](N)[C@H](O)[C@H](C)O1 [DOXORUBICIN]	0.46 µg/mL (≈ 0.846 µM)	0.45 µg/mL (≈ 0.828 µM)	–	0.42 µg/mL (≈ 0.773 µM)	0.19 µg/mL (≈ 0.35 µM)	0.77 µg/mL (≈ 1.42 µM)
C[C@@]12CC([C@@]3(O)[C@H](O)C[C@H]4[C@@H]5CC[C@]6(O)[C@@H](O)C=CC(=O)[C@]6(C)[C@H]5CC[C@@]43C)[C@@H](C1)OC(=O)[C@]2(C)O (stereo partly drawn) [ANOMANOLIDE F]	> 20 µg/mL	> 20 µg/mL	> 20 µg/mL	> 20 µg/mL	> 20 µg/mL	–
CC1=C(CO)C(=O)O[C@@H]([C@@H](C)[C@H]2CC[C@H]3[C@@H]4C[C@H]5O[C@]56[C@@H](O)C=CC(=O)[C@]6(C)[C@H]4CC[C@]23C)C1 [WITHAFERIN A]	0.06 µg/mL (≈ 0.127 µM)	0.06 µg/mL (≈ 0.127 µM)	0.05 µg/mL (≈ 0.106 µM)	0.02 µg/mL (≈ 0.0425 µM)	0.02 µg/mL (≈ 0.0425 µM)	0.07 µg/mL (≈ 0.149 µM)
C[C@@]12CC([C@@]3(O)[C@H](O)C[C@H]4[C@@H]5C[C@H](Cl)[C@]6(O)[C@@H](O)C=CC(=O)[C@]6(C)[C@H]5CC[C@@]43C)[C@@H](C1)OC(=O)[C@]2(C)O (stereo partly drawn) [ANOMANOLIDE D]	> 20 µg/mL	19 µg/mL (≈ 35.3 µM)	> 20 µg/mL	> 20 µg/mL	> 20 µg/mL	–
CC1=C(C)C(=O)O[C@@H]([C@@H](C)[C@@]2(O)CC[C@H]3[C@@H]4C[C@H]5O[C@]56[C@@H](O)C=CC(=O)[C@]6(C)[C@H]4CC[C@@]32C)C1	0.64 µg/mL (≈ 1.36 µM)	0.8 µg/mL (≈ 1.7 µM)	1.98 µg/mL (≈ 4.21 µM)	0.88 µg/mL (≈ 1.87 µM)	0.99 µg/mL (≈ 2.1 µM)	0.81 µg/mL (≈ 1.72 µM)
CC1=C(C)C(=O)O[C@@H]([C@@H](C)[C@@]2(C)C3=C(C[C@H]2O)[C@@H]2C[C@H](O)[C@]4(O)[C@@H](O)C=CC(=O)[C@]4(C)[C@H]2CC3)C1 [TUBOCAPSENOLIDE F]	> 20 µg/mL	15.1 µg/mL (≈ 31 µM)	14.7 µg/mL (≈ 30.2 µM)	6.04 µg/mL (≈ 12.4 µM)	8.41 µg/mL (≈ 17.3 µM)	–
C[C@]1(O)C[C@H]2OC(=O)[C@]1(C)C[C@H]2[C@@]1(O)[C@H](O)C[C@H]2[C@@H]3C[C@H](Cl)[C@]4(O)[C@@H](O)C=CC(=O)[C@]4(C)[C@H]3CC[C@@]21C [TUBONOLIDE A]	5.09 µg/mL (≈ 9.44 µM)	6.54 µg/mL (≈ 12.1 µM)	12 µg/mL (≈ 22.3 µM)	5.91 µg/mL (≈ 11 µM)	> 20 µg/mL	–
C[C@@]12CC([C@@]3(O)CC[C@H]4[C@@H]5C[C@H]6O[C@]67[C@@H](O)C=CC(=O)[C@]7(C)[C@H]5CC[C@@]43C)[C@@H](C1)OC(=O)[C@]2(C)O (stereo partly drawn) [ANOMANOLIDE A]	3.11 µg/mL (≈ 6.39 µM)	3.63 µg/mL (≈ 7.46 µM)	2.31 µg/mL (≈ 4.75 µM)	1.01 µg/mL (≈ 2.08 µM)	1.37 µg/mL (≈ 2.82 µM)	1.91 µg/mL (≈ 3.93 µM)
C[C@@]12CC([C@@]3(O)[C@H](O)C[C@H]4[C@@H]5C[C@H](O)[C@]6(O)CC=CC(=O)[C@]6(C)[C@H]5CC[C@@]43C)[C@@H](C1)OC(=O)[C@]2(C)O (stereo partly drawn) [ANOMANOLIDE E]	> 20 µg/mL	> 20 µg/mL	> 20 µg/mL	> 20 µg/mL	> 20 µg/mL	–
CC1=C(C)C(=O)O[C@@H]([C@](C)(O)[C@@]2(O)CC[C@H]3[C@@H]4C[C@H]5O[C@]56[C@@H](O)C=CC(=O)[C@]6(C)[C@H]4CC[C@@]32C)C1	0.49 µg/mL (≈ 1.01 µM)	0.85 µg/mL (≈ 1.75 µM)	1.45 µg/mL (≈ 2.98 µM)	0.72 µg/mL (≈ 1.48 µM)	0.71 µg/mL (≈ 1.46 µM)	1.89 µg/mL (≈ 3.88 µM)
C[C@@]12CC([C@@]3(O)[C@H](O)C[C@H]4[C@@H]5C[C@H]6O[C@]67[C@@H](O)C=CC(=O)[C@]7(C)[C@H]5CC[C@@]43C)[C@@H](C1)OC(=O)[C@]2(C)O (stereo partly drawn) [ANOMANOLIDE C]	4.41 µg/mL (≈ 8.77 µM)	1.85 µg/mL (≈ 3.68 µM)	8.01 µg/mL (≈ 15.9 µM)	2.8 µg/mL (≈ 5.57 µM)	1.58 µg/mL (≈ 3.14 µM)	–
CC1=C(C)C(=O)O[C@@H]([C@](C)(O)[C@@]23O[C@@H]2C[C@H]2[C@@H]4C[C@H]5O[C@]56[C@@H](O)C=CC(=O)[C@]6(C)[C@H]4CC[C@@]23C)C1 [20-HYDROXYTUBOCAPSANOLIDE A]	0.73 µg/mL (≈ 1.51 µM)	0.99 µg/mL (≈ 2.04 µM)	1.77 µg/mL (≈ 3.65 µM)	1.42 µg/mL (≈ 2.93 µM)	0.99 µg/mL (≈ 2.04 µM)	1.36 µg/mL (≈ 2.81 µM)

— ChEMBL document CHEMBL1147148, “Cytotoxic withanolides from Tubocapsicum anomalum” (J Nat Prod, 2007)
